{"source": "patent US4424226A", "about": "“Pyridobenzodiazepinones, pharmaceutical compositions thereof and method of use thereof” (Dr. Karl Thomae GmbH, priority 1982, dated 1984)", "key": {"muscarinic receptors [1]": {"tested_on": "muscarinic receptors", "assay": "Oxotremorine test: protection against oxotremorine-induced lesions in the mucous membrane of the stomach", "assay_type": "in vivo, rat (female albino, Crl:COBS-CD (SD) BR)", "conditions": "i.v.; rats; oxotremorine 0.62 mg/kg i.v. after neostigmine 1 mg/kg oral; % animals without lesions", "description": "(§1) Oxotremorine, a specific agonist for muscarinic receptors produces lesions in the mucous membrane of the stomach in rats and increases their secretion of saliva. This test method was chosen so that any selective activity of an antimuscarinic substance on the stomach could be identified.\n(§2) Ten female albino rats (of the Crl:COBS-CD (SD) BR strain) with a body weight of from 120 to 150 gm apiece were used in each treatment group and were kept without food for 24 hours before the start of the test but given free access to drinking water.\n(§3) To determine, in preliminary tests, the muscarinic effect of oxotremorine on each of the symptoms studied, a dosage/activity curve was drawn up with at least three dosages for each symptom.\n(§4) When the antimuscarinic substances were tested, the dosage of oxotremorine which triggered the symptom in question in 90 to 100% of the animals in the preliminary tests was used.\nEach antimuscarinic substance was administered intravenously in uniformly graduated doses 15 minutes before the oxotremorine was administered. Control groups were given corresponding quantities of the solvent and suspension agent instead of the test substance. Immediately after the oxotremorine was administered, the animals were placed in a glass case for 15 minutes and observed.\n(§5) The ED50 values were determined using the method described by Litchfield and Wilcoxon (J. Pharmacol. Exp. Ther. 96, 99, 1949).\nThe effects on lesions of the mucous membrane of the stomach were evaluated as follows:\nThe lesions of the gastric mucous membrane were produced by intravenous injection of 0.62 mg/kg of oxotremorine 30 minutes after the oral administration of 1 mg/kg of neostigmine (a cholinesterase inhibitor). […] The protective effect of the test substances was expressed as the percentage inhibition (percentage of animals without lesions). The ED50 and ED70 values were determined using the method of LITCHFIELD and WILCOXON (see above)."}, "[2]": {"assay": "Testing for mydriasis (effect on pupil size)", "conditions": "rat, in vivo, iv; rats; pupil observed 10 minutes", "description": "The effect of the test substances on the pupil size in rats was investigated as follows:\nThe substances were administered intravenously to groups of 10 animals in at least three uniformly graduated doses. The pupil size was then observed for 10 minutes to see if there were any changes (mydriasis or miosis). […] The percentage of test animals in which mydriasis occurred was determined. The ED50 values were again determined during the method of LITCHFIELD and WILCOXON (see above)."}, "[3]": {"target": "muscarinic receptors (cerebral cortex)", "assay": "Binding to muscarinic receptors, cerebral cortex (inhibition of specific 3H-NMS binding)", "parameters": "species or system rat (Sprague-Dawley)", "conditions": "0.3 nM 3H-NMS, 45 min, 30° C., pH 7.4, read-out: Receptor Binding Tests IC50, Cortex", "description": "(§6) 3. Studies of binding to muscarinic receptors: Determination of the IC50 value\n(§7) The organ donors were male Sprague-Dawley rats with a body weight of from about 180 to 220 gm each. After the heart, stomach, and cerebral cortex had been removed, the remainder of the operation was carried out in ice-cold Hepes-HCl buffer (pH 7.4; 100 m molar NaCl, 10 m molar MgCl2). The smooth muscle of the fundus of the stomach was separated from the mucous membrane of the stomach and subjected to preliminary homogenization. The whole heart was cut up with scissors. All the organs were then homogenized in a Potter apparatus.\n(§8) For the bonding test, the homogenized organs were diluted as follows:\n(§9) The homogenized organ preparations were incubated at a specific concentration of the radioligand and with a series of concentrations of the non-radioactive test substances in an Eppendorf centrifuge tube at 30° C. The duration of incubation was 45 minutes. The substance 0.3 n molar ^3 H-N-methylscopolamine (^3 H-NMS) was used as the radioligand. After incubation had been brought to an end by centrifuging at 14,000 g, the radioactivity in the pellet was determined. […] The proportion of non-specific bonding was defined as the radioactivity which was bonded in the presence of 1μ molar quinuclidinylbenzylate. […] The IC50 values of the non-labelled test substances were determined graphically. […]"}, "[4]": {"target": "T1, muscarinic receptors (smooth muscle of the fundus of the stomach) (Rattus norvegicus)", "T1 construct": "The smooth muscle of the fundus of the stomach was separated from the mucous membrane of the stomach; from tissue; host or cells: smooth muscle of the stomach fundus of male Sprague-Dawley rats, homogenate", "assay": "Binding to muscarinic receptors, smooth muscle of the fundus of the stomach (inhibition of specific 3H-NMS binding)", "parameters": "species or system rat (Sprague-Dawley)", "conditions": "0.3 nM 3H-NMS, 45 min, 30° C., pH 7.4, read-out: Receptor Binding Tests IC50, Smooth Muscle Fundus of Stomach", "description": "as §6, §7, §8\nSmooth muscle of the fundus\nas §9"}, "muscarinic receptors [5]": {"tested_on": "muscarinic receptors", "assay": "Oxotremorine test: inhibition of oxotremorine-induced secretion of saliva", "assay_type": "in vivo, rat (female albino, Crl:COBS-CD (SD) BR)", "conditions": "i.v., 15 min before oxotremorine 0.083 mg/kg i.v.; rats", "description": "as §1, §2, §3, §4\nSecretion of saliva 0.083 mg/kg i.v.\nEach antimuscarinic substance was administered intravenously in uniformly graduated doses 15 minutes before the oxotremorine was administered. Control groups were given corresponding quantities of the solvent and suspension agent instead of the test substance. […]\nas §5"}, "[6]": {"target": "T2, muscarinic receptors (heart) (Rattus norvegicus, UniProt P10980)", "T2 construct": "The whole heart was cut up with scissors; All the organs were then homogenized in a Potter apparatus; from tissue; host or cells: whole heart of male Sprague-Dawley rats, homogenate", "T2 sequence (P10980 1-466)": "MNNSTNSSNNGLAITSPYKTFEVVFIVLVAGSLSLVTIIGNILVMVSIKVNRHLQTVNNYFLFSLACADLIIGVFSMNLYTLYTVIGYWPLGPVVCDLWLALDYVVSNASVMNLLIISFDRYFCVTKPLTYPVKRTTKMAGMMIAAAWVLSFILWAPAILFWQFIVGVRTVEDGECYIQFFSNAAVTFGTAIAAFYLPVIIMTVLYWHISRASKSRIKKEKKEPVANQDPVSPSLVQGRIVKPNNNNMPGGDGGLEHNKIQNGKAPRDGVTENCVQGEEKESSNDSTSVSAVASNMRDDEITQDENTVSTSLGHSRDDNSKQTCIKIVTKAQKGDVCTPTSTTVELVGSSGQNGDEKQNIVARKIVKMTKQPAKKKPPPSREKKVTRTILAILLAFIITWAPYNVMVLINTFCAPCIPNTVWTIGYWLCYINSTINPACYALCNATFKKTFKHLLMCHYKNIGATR", "assay": "Binding to muscarinic receptors, whole heart (inhibition of specific 3H-NMS binding)", "parameters": "species or system rat (Sprague-Dawley)", "conditions": "0.3 nM 3H-NMS, 45 min, 30° C., pH 7.4, read-out: Receptor Binding Tests IC50, Heart", "description": "as §6, §7, §8, §9"}}, "data": [{"smiles": "CN1[C@@H]2CC[C@H]1C[C@@H](CC(=O)N1c3ccccc3C(=O)Nc3cccnc31)C2", "note": "[B, endo-5,11-dihydro-11-[(8-methyl-8-azabicyclo[3.2.1]oct-3-yl)acetyl]-6H-pyrido[2,3-b][1,4]benzodiazepin-6-one]", "values": [{"measurement": "Oxotremorine Test, Anti-ulcerative Effect ED70", "setting": "muscarinic receptors [1]", "value": 37, "unit": "µg/kg"}, {"measurement": "ED50 at 10 min", "setting": "[2]", "value": 0.22, "unit": "mg/kg"}, {"measurement": "IC50", "setting": "[3]", "value": 50, "unit": "nM"}, {"measurement": "IC50", "setting": "[4]", "value": 700, "unit": "nM"}, {"measurement": "Oxotremorine Test, Inhibition of Salivation ED50", "setting": "muscarinic receptors [5]", "value": 300, "unit": "µg/kg"}, {"measurement": "IC50", "setting": "[6]", "value": 150, "unit": "nM"}]}, {"smiles": "CN1CC=C(CC(=O)N2c3ccccc3C(=O)Nc3cccnc32)CC1", "note": "[A, 5,11-dihydro-11-[(1-methyl-1,2,5,6-tetrahydro-4-pyridinyl)acetyl]-6H-pyrido[2,3-b][1,4]benzodiazepin-6-one]", "values": [{"measurement": "Oxotremorine Test, Anti-ulcerative Effect ED50", "setting": "muscarinic receptors [1]", "value": 1.1, "unit": "µg/kg"}, {"measurement": "Oxotremorine Test, Anti-ulcerative Effect ED70", "setting": "muscarinic receptors [1]", "value": 2, "unit": "µg/kg"}, {"measurement": "ED50 at 10 min", "setting": "[2]", "value": 0.074, "unit": "mg/kg"}, {"measurement": "IC50", "setting": "[3]", "value": 50, "unit": "nM"}, {"measurement": "IC50", "setting": "[4]", "value": 200, "unit": "nM"}, {"measurement": "Oxotremorine Test, Inhibition of Salivation ED50", "setting": "muscarinic receptors [5]", "value": 28, "unit": "µg/kg"}, {"measurement": "IC50", "setting": "[6]", "value": 170, "unit": "nM"}]}]}
